Assay results reported in patent US20130045947A1, “PLA2ACTIVITY AS A MARKER FOR OVARIAN AND OTHER GYNECOLOGIC CANCERS” (INDIANA UNIVERSITY RESEARCH AND TECHNOLOGY CORPORATION, priority 2010, published 2013).
Entries after “also recorded” stand apart in the source; their conditions may differ.

Assays:
[1] = test system: PLA2; assay type: biochemical, human
[2] = test system: PLA2; assay type: biochemical, human; details: for sensitivity of exosome-associated PLA2 activity to inhibitor: exosomes isolated from human ascites (ExoQuick); for inhibition of ascitic PLA2 activity: cell-free human EOC ascites
[3] = test system: tumors; assay: Tumors from control and BEL-treated mice; assay type: in vivo, mouse
Description: Referring now to FIGS. 3A, C and D, PLA2 activities measured from several mouse models for GYN diseases are presented.

[4] = test system: PLA2; assay type: biochemical, mouse
[5] = test system: SKOV3 cells; assay: Cell migration assay, SKOV3 cells; assay type: cell-based, human; details: for effect on migration of SKOV3 cells induced by S1 fractions: inhibitor in lower chamber, two different S1 fractions, FIG. 10A; for stimulation of migration: SKOV3 cells, FIG. 10D
Protocol: In order to determine whether PLA2 and ATX were functionally involved in ascites-induced migration of EOC cells, the inhibitors MAFP, BEL, and HA130 were added to the lower chambers during the assay. […] The effect of each inhibitor was almost identical whether using S1, S3, or S4 fractions (FIG. 10 and data not shown).

[6] = test system: EOC metastasis; details: with low and non-toxic doses of paclitaxel; shown previously; cited from earlier work
[7] = test system: EOC cells; assay: Ascites-stimulated proliferation, migration and invasion of EOC cells; details: S1 and S3 specimens
[8] = test system: RAW 264.7 mouse macrophages; assay: PLA2 activity in conditioned medium (CM) of macrophages; assay type: cell-based; details: for effect on PLA2 activity detected in CM: exosome secretion inhibitors, DMA 5 and 12.5 nM, MBC 1 and 2 mM; for order of effectiveness in reducing PLA2 activity of CM: ABC transporter inhibitors; for effect on PLA2 activity of CM: cells treated 4 hr, 17-hr CM, MK571 10-50 μM, CsA 2-50 μM, glyburide 0.1-2 mM, FIG. 12B
[9] = test system: SKOV3 cells; assay: MTT proliferation assay, ascites-stimulated SKOV3 cells; assay type: cell-based, human; details: S1-stimulated; 10 μM Ki16425
[10] = test system: SKOV3 cells; assay: Migration of SKOV3 cells to RAW 264.7 macrophage CM; assay type: cell-based, human; details: MK571 50 μM, glyburide 500 μM; FIG. 12C
Protocol: Referring now to FIG. 12C, CM from RAW 264.7 mouse macrophages was tested to determine if it would stimulate migration of SKOV3 cells. Migration of SKOV3 cells to 17-hr CM from untreated cells and cells treated with inhibitors (MK571, 50 μM, CsA, 10 μM, glyburide, 500 μM, and MAFP, 20 μM). ***, P<0.001 compared to CM. Data is mean and SD of three membranes; experiment repeated twice. An approximately 2-fold increase in migration with the CM compared to the medium control in the bottom well of the migration chamber was found. […] The addition of MAFP to the CM also abrogated migration.

[11] = biological target: sPLA2 (Apis mellifera, UniProt P00630); assay type: biochemical, bee
[12] = test system: SKOV3 cells; assay: Cell invasion assay; details: FIG. 10D
[13] = test system: EOC cells; details: has been shown (earlier work); cited from earlier work

Chain of sPLA2 (P00630 34-167 limits assumed): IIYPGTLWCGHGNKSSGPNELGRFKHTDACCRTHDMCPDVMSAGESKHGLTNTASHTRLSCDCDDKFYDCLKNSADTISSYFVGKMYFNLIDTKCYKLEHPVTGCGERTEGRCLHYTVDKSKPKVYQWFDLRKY

Compound: O=C1O/C(=C/Br)CCC1c1cccc2ccccc12 (centres unmarked) [BEL, bromoenol lactone]
- sensitivity of para-nuclear (cancer) PLA2 activities to inhibitor ([1]; frozen human GYN cancer tissue sections, DBPC, FIG. 1D): sensitive
- sensitivity of exosome-associated PLA2 activity to inhibitor [2]: proved sensitive
- tumor size / tumorigenesis ([3]; BEL-treated vs control mice): reduces tumorigenesis; also recorded: significantly smaller
- PLA2 activity in tumors of treated mice ([3]; tumors from BEL-treated vs control mice, FIG. 3B): greatly reduced
- sensitivity of PLA2 activities in normal mouse tissues ([4]; kidney, lung, liver): insensitivity
- effect on sPLA2-like activity of normal mouse kidney tissue ([4]; mouse kidney, FIG. 3E): minimally affected
- effect on migration of SKOV3 cells induced by S1 fractions [5]: dose-dependently reduced
- inhibition of EOC metastasis in combination [6]: can inhibit EOC metastasis
- inhibition of ascites-stimulated proliferation, migration and invasion [7]: 20-40%

Compound: CN(C)c1nc(N)c(C(=O)N=C(N)N)nc1Cl.Cl [DMA, 5,5-(N—N-Dimethyl)-amiloride hydrochloride]
- effect on PLA2 activity detected in CM [8]: Neither inhibitor had any significant effect

Compound: O[C@@H](CS)[C@@H](O)CS [DTT]
- inhibition of ascitic PLA2 activity [2]: did not inhibit

Compound: O=C1S/C(=C\c2ccc(OCc3cccc(B(O)O)c3)cc2)C(=O)N1Cc1ccc(F)cc1 [HA130]
- effect on migration of SKOV3 cells induced by S1 fractions [5]: dose-dependently reduced
- inhibition of ascites-stimulated proliferation, migration and invasion [7]: 10-45%

Compound: Cc1noc(-c2ccc(CSCCC(=O)O)cc2)c1NC(=O)OC(C)c1ccccc1Cl (centres unmarked) [Ki16425]
- proliferation of SKOV3 cells reduced by [9]: 12.4±7.44%
- inhibition of migratory activity induced by S1, S3 and P3 fractions ([5]; SKOV3 cells pretreated with Ki16425 (10 μM), FIG. 10B): > 70%

Compound: CN(C)C(=O)CCSC(SCCC(=O)O)c1cccc(/C=C/c2ccc3ccc(Cl)cc3n2)c1 (centres unmarked) [MK571]
- order of effectiveness in reducing PLA2 activity of CM [8]: MK571>glyburide>CsA
- effect on PLA2 activity of CM [8]: dose-responsively reduced
- migration of SKOV3 cells to CM from inhibitor-treated macrophages [10]: did not stimulate migration

Compound: CCCCCCCCCCCCCCCCSC[C@H](COP(=O)(O)OCC[N+](C)(C)C)NC(=O)CCCCCCCCCCCCCCC [TAPC, thioether amide-PC]
- sensitivity of tumor PLA2 activity to inhibitor ([1]; frozen tumor sections, MAFP 40 μM, TAPC 250 μM, FIG. 7B): but not to an inhibitor of sPLA2
- inhibition of ascitic PLA2 activity [2]: did not inhibit
- sensitivity of exosome-associated PLA2 activity to inhibitor [2]: proved sensitive
- blocking of sPLA2 activity of positive control [11]: blocking sPLA2 activity

Compound: COc1ccc(Cl)cc1C(=O)NCCc1ccc(S(=O)(=O)NC(=O)NC2CCCCC2)cc1 [glyburide]
- order of effectiveness in reducing PLA2 activity of CM [8]: MK571>glyburide>CsA
- effect on PLA2 activity of CM [8]: dose-responsively reduced
- migration of SKOV3 cells to CM from inhibitor-treated macrophages [10]: did not stimulate migration

Compound: CCCCCCCCCCCCCCCCOC[C@@H](O)COP(=O)([O-])OCC[N+](C)(C)C [lyso-PAF, lyso-platelet activating factor]
- stimulation of migration [5]: did not stimulate
- stimulation of invasion [12]: did not stimulate

Compound: CCCCCCCC/C=C\CCCCCCCC(=O)O [oleic acid]
- stimulation of migration [5]: did not stimulate
- stimulation of invasion [12]: did not stimulate

Compound: Lysophosphatidylinositol [LPI]
- stimulation of migration [5]: did not stimulate
- stimulation of invasion [12]: did not stimulate

Compound: cyclosporine A [CsA]
- order of effectiveness in reducing PLA2 activity of CM [8]: MK571>glyburide>CsA
- effect on PLA2 activity of CM [8]: dose-responsively reduced

Compound: lysophosphatidylcholine [LPC]
- stimulation of EOC cell migration [13]: does not stimulate

Compound: methyl-β-cyclodextrin [MBC]
- effect on PLA2 activity detected in CM [8]: Neither inhibitor had any significant effect
